Measurements as given in patent US10323023B2, “Rho-associated protein kinase inhibitor, pharmaceutical composition comprising the same, as well as preparation method and use thereof” (Beijing Tide Pharmaceutical Co., Ltd., priority 2017, dated 2019).
pIC50: −log10 of the molar value.

Each compound was assayed against ROCK2 (Homo sapiens (Human), UniProt O75116) (assay: ROCK2 kinase IC50 by HTRF KinEASE-STK S2 kit). Details: 2 hours at room temperature, ROCK2 (01-119) from Carna Biosciences.
Format: biochemical
Procedure: The kinase IC50 was determined by a commercialized CISBIO kinase detection kit, HTRF KinEASE-STK S2 kit (62ST2PEC). ROCK2 (01-119) employed in the reaction was purchased from Carna Biosciences.
Before the assay, the following working solutions as needed were formulated with corresponding reagents according to the instruction of the kinase detection kit: 1×kinase buffer, 5×STK-S2 substrate working solution (1.5 μM) and 5×ATP working solution (1.5 μM), 5×ROCK2 kinase working solution, 4×Streptavidin-XL665 working solution, and 4×STK-Ab-Cryptate 2 detection solution. Then the assay was performed according to the following procedure.
A solution of a compound at a concentration of 10000 nM was prepared with the 1×kinase buffer containing 2.5% DMSO. Gradient dilution of the solution of the compound was performed with the kinase buffer containing DMSO, so as to obtain solutions of a test compound at 9 different concentrations. In addition to wells of test compounds, a positive well (containing all the reagents except the compound) and a negative well (containing all the reagents except the test compound and kinase) were set. Except for the control wells (positive and negative wells), a solution of a test compound (4 μL) was added to each of the reaction wells, and a solution of 2.5% DMSO was added to the control wells. Then the substrate (2 μM, i.e., 2 μL 5×STK-S2 substrate working solution) was added to each of the reaction wells. The 5×ROCK2 kinase working solution (2 μL, containing 1.4 ng ROCK2 kinase) was added to each of the reaction wells except for the negative well, the volume of which was made up with the 1×kinase buffer (2 μL). The 5×ATP working solution (2 μL) was added to each of the reaction wells, and the mixtures were incubated at room temperature for 2 hours. After the kinase reaction was complete, the 4×Streptavidin-XL665 working solution was added to each of the reaction wells, the solutions were mixed, followed by immediate addition of the 4×STK-Ab-Cryptate 2 detection solution (5 μL), and the mixtures were incubated at room temperature for 1 hour. The fluorescence signal was read on ENVISION (Perkinelmer) (excitation wavelength: 320 nm, and emission wavelength: 665 nm and 615 nm). The inhibitory rate in each well was calculated based on the fluorescence intensity value: ER (Emission Ratio)=(fluorescence intensity at 665 nm/fluorescence intensity at 615 nm); inhibitory rate=(ERpositive−ERtest compound)/(ERpositive−ERnegative)*100%. Curves were plotted and fitted to obtain the median inhibitory concentration (IC50) of each test compound with the PRISM 5.0 software.

Sequence of ROCK2 (O75116 1-553 limits assumed): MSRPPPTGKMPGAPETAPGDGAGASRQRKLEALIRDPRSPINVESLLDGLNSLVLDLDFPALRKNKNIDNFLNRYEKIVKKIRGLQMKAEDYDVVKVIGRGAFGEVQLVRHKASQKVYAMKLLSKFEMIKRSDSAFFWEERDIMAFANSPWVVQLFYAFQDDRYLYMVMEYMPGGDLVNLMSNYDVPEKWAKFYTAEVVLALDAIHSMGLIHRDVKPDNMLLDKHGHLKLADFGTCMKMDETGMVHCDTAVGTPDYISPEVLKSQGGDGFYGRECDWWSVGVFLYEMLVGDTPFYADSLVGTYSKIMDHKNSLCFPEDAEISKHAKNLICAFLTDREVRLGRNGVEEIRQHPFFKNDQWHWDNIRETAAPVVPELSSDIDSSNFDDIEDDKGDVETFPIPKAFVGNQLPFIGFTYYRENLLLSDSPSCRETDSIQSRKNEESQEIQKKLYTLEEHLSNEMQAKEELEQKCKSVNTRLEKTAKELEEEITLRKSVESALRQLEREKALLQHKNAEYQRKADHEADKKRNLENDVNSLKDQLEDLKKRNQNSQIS

O=C(Nc1ccnnc1)N1Cc2ccc(-c3nccc(Nc4ccc5[nH]ncc5c4)n3)cc2C1 [TDI01237, 5-(4-((1H-indazol-5-yl)amino)pyrimidin-2-yl)-N-(pyridazin-4-yl)isoindoline-2-carboxamide] was tested. Which pIC50 did it give?
The pIC50 was 6.77.

How did the pIC50 turn out when O=C(Nc1ccnnc1)c1cc2ccc(-c3nccc(Nc4ccc5[nH]ncc5c4)n3)cc2s1 [TDI01116, 6-(4-((1H-indazol-5-yl)amino)pyrimidin-2-yl)-N-(pyridazin-4-yl)benzo[b]thiophene-2-carboxamide] was run?
The pIC50 was 6.63.

O=C(Nc1ccnnc1)c1cc2ccc(-c3ncc(F)c(Nc4ccc5[nH]ncc5c4)n3)cc2[nH]1 [TDI01213, 6-(4-((1H-indazol-5-yl)amino)-5-fluoro-pyrimidin-2-yl)-N-(pyridazin-4-yl)-1H-indole-2-carboxamide] was tested. Which pIC50 did it give?
Its pIC50 is 6.59.

O=C(Nc1ccnnc1)c1cc2ccc(-c3ncnc(Nc4ccc5[nH]ncc5c4)n3)cc2[nH]1 [TDI01167, 6-(4-((1H-indazol-5-yl)amino)-1,3,5-triazin-2-yl)-N-(pyridazin-4-yl)-1H-indole-2-carboxamide] was tested. Which pIC50 did it give?
The pIC50 was 6.65.

O=C(Nc1ccnnc1)c1cc2ccc(-c3nccc(Nc4ccc5[nH]ncc5c4)n3)cc2[nH]1 [TDI01152, 6-(4-((1H-indazol-5-yl)amino)pyrimidin-2-yl)-N-(pyridazin-4-yl)-1H-indole-2-carboxamide] was tested. Which pIC50 did it give?
Its pIC50 is 7.06.

With Cn1c(C(=O)Nc2ccnnc2)cc2ccc(-c3nccc(Nc4ccc5[nH]ncc5c4)n3)cc21 [TDI01201, 6-(4-((1H-indazol-5-yl)amino)pyrimidin-2-yl)-1-methyl-N-(pyridazin-4-yl)-1H-indole-2-carboxamide] as the compound, how does the pIC50 read?
The pIC50 was 7.32.

Cc1cc(Nc2ccc3[nH]ncc3c2)nc(-c2ccc3cc(C(=O)Nc4ccnnc4)[nH]c3c2)n1 [TDI01251, 6-(4-((1H-indazol-5-yl)amino)-6-methyl-pyrimidin-2-yl)-N-(pyridazin-4-yl)-1H-indole-2-carboxamide] was tested. Which pIC50 did it give?
The pIC50 was 7.00.

How did the pIC50 turn out when O=C(Nc1cnncc1Cl)c1cc2ccc(-c3nccc(Nc4ccc5[nH]ncc5c4)n3)cc2[nH]1 [TDI01181, 6-(4-((1H-indazol-5-yl)amino)pyrimidin-2-yl)-N-(5-chloro-pyridazin-4-yl)-1H-indole-2-carboxamide] was run?
The pIC50 was 7.04.

How did the pIC50 turn out when O=C(Nc1ccnnc1)c1cc2cc(-c3nccc(Nc4ccc5[nH]ncc5c4)n3)ccc2[nH]1 [TDI01188, 5-(4-((1H-indazol-5-yl)amino)pyrimidin-2-yl)-N-(pyridazin-4-yl)-1H-indole-2-carboxamide] was run?
Its pIC50 is 6.91.

With CN(C(=O)c1cc2ccc(-c3nccc(Nc4ccc5[nH]ncc5c4)n3)cc2[nH]1)c1ccnnc1 [TDI01347, 6-(4-((1H-indazol-5-yl)amino)pyrimidin-2-yl)-N-methyl-N-(pyridazin-4-yl)-1H-indole-2-carboxamide] as the compound, how does the pIC50 read?
The pIC50 was 6.45.

How did the pIC50 turn out when Cc1cnc(-c2ccc3cc(C(=O)Nc4ccnnc4)[nH]c3c2)nc1Nc1ccc2[nH]ncc2c1 [TDI01250, 6-(4-((1H-indazol-5-yl)amino)-5-methyl-pyrimidin-2-yl)-N-(pyridazin-4-yl)-1H-indole-2-carboxamide] was run?
Its pIC50 is 6.68.

O=C(Nc1ccnnc1)c1cc2ccc(-c3nc(Nc4ccc5[nH]ncc5c4)cc4nccn34)cc2[nH]1 [TDI01164, 6-(7-((1H-indazol-5-yl)amino)imidazo[1,2-c]pyrimidin-5-yl)-N-(pyridazin-4-yl)-1H-indole-2-carboxamide] was tested. Which pIC50 did it give?
Its pIC50 is 6.36.

Cc1nc(-c2ccc3cc(C(=O)Nc4ccnnc4)[nH]c3c2)nc(Nc2ccc3[nH]ncc3c2)c1C [TDI01232, 6-(4-((1H-indazol-5-yl)amino)-5,6-dimethylpyrimidin-2-yl)-N-(pyridazin-4-yl)-1H-indole-2-carboxamide] was tested. Which pIC50 did it give?
Its pIC50 is 6.53.

O=C(Nc1ccnnc1Cl)c1cc2ccc(-c3nccc(Nc4ccc5[nH]ncc5c4)n3)cc2[nH]1 [TDI01180, 6-(4-((1H-indazol-5-yl)amino)pyrimidin-2-yl)-N-(3-chloro-pyridazin-4-yl)-1H-indole-2-carboxamide] was tested. Which pIC50 did it give?
Its pIC50 is 7.43.

O=C(Nc1ccnnc1)c1c[nH]c2ccc(-c3nccc(Nc4ccc5[nH]ncc5c4)n3)cc12 [TDI01191, 5-(4-((1H-indazol-5-yl)amino)pyrimidin-2-yl)-N-(pyridazin-4-yl)-1H-indole-3-carboxamide] was tested. Which pIC50 did it give?
The pIC50 was 6.65.

How did the pIC50 turn out when O=C(Nc1ccnnc1)c1ccc2ccc(-c3nccc(Nc4ccc5[nH]ncc5c4)n3)cc2n1 [TDI01236, 7-(4-((1H-indazol-5-yl)amino)pyrimidin-2-yl)-N-(pyridazin-4-yl)quinoline-2-carboxamide] was run?
Its pIC50 is 6.87.

How did the pIC50 turn out when Cc1c(Nc2ccnc(-c3ccc4cc(C(=O)Nc5ccnnc5)[nH]c4c3)n2)ccc2[nH]ncc12 [TDI01276, 6-(4-((4-methyl-1H-indazol-5-yl)amino)pyrimidin-2-yl)-N-(pyridazin-4-yl)-1H-indole-2-carboxamide] was run?
The pIC50 was 6.95.

With O=C(NCc1ccnnc1)c1cc2ccc(-c3nccc(Nc4ccc5[nH]ncc5c4)n3)cc2[nH]1 [TDI01178, 6-(4-((1H-indazol-5-yl)amino)pyrimidin-2-yl)-N-(pyridazin-4-ylmethyl)-1H-indole-2-carboxamide] as the compound, how does the pIC50 read?
The pIC50 was 6.77.

O=C(Nc1ccnnc1)c1cc2ccc(-c3nc(Nc4ccc5[nH]ncc5c4)c4sccc4n3)cc2[nH]1 [TDI01175, 6-(4-((1H-indazol-5-yl)amino)thieno[3,2-d]pyrimidin-2-yl)-N-(pyridazin-4-yl)-1H-indole-2-carboxamide] was tested. Which pIC50 did it give?
The pIC50 was 6.71.
